Results taken from PubChem BioAssay (NCI).
“And” between values parts separate entries of the source, which are not always exact repeats. Equal entries are not always repeated.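 Briefly, cells in 96-well plates were exposed to five compound concentrations for 48 h, and endpoints were estimated by linear interpolation. GI50 marks 50% less growth. TGI marks complete inhibition of growth.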 *1 amine or outer side, *2 acyl side, *3 side chain or, on linkers, in order; H or OH if unused. Where a SMILES comes first, the peptide text is derived from it. Bridges are numbered along the chain shown (N, C = ends). Roman numbers before positions name the chains, in order. [ ]: non-standard residue; d: D form. Actinocin(9to1) = Cc1c2oc3c(C)ccc(C(=O)[*:1])c3nc-2c(C(=O)[*:2])c(N)c1=O; NMeV = CN[CH](C(=O)O)C(C)C; Sar = CNCC(=O)O

Key:
Assay in all cases: NCI tumour cell line growth inhibition, 48 h
BT-549 breast = test system: BT-549 breast
COLO 205 colon = test system: COLO 205 colon
HL-60(TB) leukemia = test system: HL-60(TB) leukemia
NCI-H522 lung = test system: NCI-H522 lung
OVCAR-4 ovarian = test system: OVCAR-4 ovarian
OVCAR-8 ovarian = test system: OVCAR-8 ovarian
SK-OV-3 ovarian = test system: SK-OV-3 ovarian
SNB-19 CNS = test system: SNB-19 CNS
SNB-75 CNS = test system: SNB-75 CNS
SR leukemia = test system: SR leukemia

Structure (SMILES)	TGI (BT-549 breast) [µM]	TGI (COLO 205 colon)	TGI (HL-60(TB) leukemia) [µM]	TGI (NCI-H522 lung)	TGI (OVCAR-4 ovarian)	TGI (OVCAR-8 ovarian) [µM]	TGI (SK-OV-3 ovarian) [µM]	GI50 (SNB-19 CNS) [µM]	TGI (SNB-19 CNS) [µM]	TGI (SNB-75 CNS) [µM]	TGI (SR leukemia) [µM]	GI50 (HL-60(TB) leukemia) [µM]	GI50 (NCI-H522 lung)	GI50 (OVCAR-4 ovarian) [µM]	GI50 (BT-549 breast) [µM]	GI50 (COLO 205 colon) [µM]	GI50 (OVCAR-8 ovarian) [µM]	GI50 (SK-OV-3 ovarian) [µM]	GI50 (SNB-75 CNS) [µM]
Cc1c2oc3c(C)ccc(C(=O)NC4C(=O)NC(Cc5ccccc5)C(=O)N5CCCC5C(=O)N(C)CC(=O)N(C)C(C(C)C)C(=O)OC4C)c3nc-2c(C(=O)NC2C(=O)NC(Cc3ccccc3)C(=O)N3CCCC3C(=O)N(C)CC(=O)N(C)C(C(C)C)C(=O)OC2C)c(N)c1=O (stereo not given) (I: TFP[Sar][NMeV] / II: TFP[Sar][NMeV]; ester I:1-I:C, II:1-II:C; linker I:N-II:N via Actinocin(9to1); configuration not given here)	0.0135	0.0112 µM and 0.0174 µM	< 0.001	0.0217 µM	0.383 µM and 0.467 µM	1.53	0.524	< 0.001	1.62	0.049	< 0.001								
O=C(NNC(=S)Nc1ccccc1)c1nsc2ccccc12		> 100 µM	53.8		> 100 µM	> 100			> 100	65.6	91.1								
CC1C(NNC(N)=O)Oc2cc3c(cc2C1c1ccccc1O)OCO3 (stereo not given)	> 100		35.4	58.6 µM			> 100		> 100	86.3	43.1								
CC(C)(C)c1ccc(C(O)CCCN2CCC(C(O)(c3ccccc3)c3ccccc3)CC2)cc1 (stereo not given)		2.52 µM and 21.2 µM	3.97	3.31 µM and 21.2 µM	2.75 µM							2.16	1.83 µM and 13.6 µM	1.44					
CN1CCN(Cc2c[nH]c3c2C(=O)c2c(c(O)c4ccccc4c2O)C3=O)CC1	34.5	70.7 µM	70.4	33.8 µM	42.6 µM	26	55.2	22.4	52	55.7		10.3	14.1 µM	21.3	18.6	31.7	6.34	28.4	26.6
